In patent publication US20250312362A1, “INHIBITORS OF MsbA AS ANTIBIOTICS, PHARMACEUTICAL COMPOSITIONS, AND USES THEREOF” (Merck Sharp & Dohme LLC, priority 2022, published 2025) one finds MIC data, which are given here for 21 compounds.

The structures appear in SMILES notation. ≈ marks a conversion by molar mass, not a printed value.

For this assay, the system named is various strains of bacteria. The assay is described as follows: Antimicrobial potency: bacterial growth inhibition by OD600 (Antibacterial assay 1). The format is cell-based. The following applies: read-out: Antibacterial assay 1 (MITC95). The protocol:
The concentrations of compounds required to inhibit the growth of various strains of bacteria were determined in an assay that assessed bacterial growth by measuring optical density at 600 nm (OD600). Test articles were dissolved in 100% DMSO and serially diluted two-fold from their maximal concentration in 100% DMSO. Forty-nine μl of bacterial inoculum (at approx. 2×10^5 cfu/mL in CAMHB) were put into wells of an assay plate. One μl of compound or DMSO was transferred from the source plate to the assay plate. The completed assay plates were then incubated at 35±2 degC. for 18-22 h. Bacterial growth was measured by reading OD600 on a spectrophotometer. Data analysis calculates the lowest concentration of compound which results in ≥95% growth inhibition (minimum inhibitory threshold concentration 95%, MITC95).
As to `O=C(CCCOc1ccc(NS(=O)(=O)c2cnn(-c3ccc(Cl)cc3)c2)c(C(=O)O)c1)Nc1ccc(NC(=O)Cc2ccc(-c3ccc(F)cc3)cc2)c(C(=O)O)c1` [Compound 11], the MIC was 0.0489 µM (≈ 0.0404 µg/mL).

In the case of `CCCCc1ccc(S(=O)(=O)Nc2ccc(NC(=O)Nc3ccc(NS(=O)(=O)c4ccc(CCCC)cc4)c(C(=O)O)c3)cc2C(=O)O)cc1` [Compound 15], the MIC was determined as 2.21 µM (≈ 1.6 µg/mL).

Turning to `O=C(COc1ccc(NS(=O)(=O)c2cnn(-c3ccc(Cl)cc3)c2)c(C(O)O)c1)Nc1ccc(NC(=O)C(=O)NCc2ccc(Cl)cc2)c(C(=O)O)c1` [Compound 13], the MIC was determined as 0.0978 µM (≈ 0.0766 µg/mL). Take `O=C(CCCOc1ccc(NS(=O)(=O)c2ccc(Oc3ccc(Cl)cc3)nc2)c(C(=O)O)c1)Nc1ccc(NS(=O)(=O)c2ccc(Oc3ccc(Cl)cc3)nc2)c(C(=O)O)c1` [Compound 9]: the MIC stood at 0.0122 µM (≈ 0.0111 µg/mL).

As for `O=C(Nc1ccc(NS(=O)(=O)c2cnn(-c3ccc(F)cc3)c2)c(C(=O)O)c1)Nc1ccc(NS(=O)(=O)c2cnn(-c3ccc(F)cc3)c2)c(C(=O)O)c1` [Compound 14, 5-(3-(3-carboxy-4-((1-(4-fluorophenyl)-1H-pyrazole)-4-sulfonamido)phenyl)ureido)-2-((1-(4-fluorophenyl)-1H-pyrazole)-4-sulfonamido)benzoic acid], the MIC is 3.13 µM (≈ 2.44 µg/mL). Turning to `O=C(CCCOc1ccc(NS(=O)(=O)c2cnn(-c3ccc(Cl)cc3)c2)c(C(=O)O)c1)Nc1ccc(NS(=O)(=O)c2ccc(-c3cc(Cl)cc(Cl)c3)cc2)c(C(=O)O)c1` [Compound 5], the MIC worked out at 0.0122 µM (≈ 0.011 µg/mL). Take `CCCCc1ccc(S(=O)(=O)Nc2ccc(OCCCC(=O)Nc3ccc(NS(=O)(=O)c4ccc(CCCC)cc4)c(C(=O)O)n3)cc2C(=O)O)cc1` [Compound 10]: the MIC came out at 0.985 µM (≈ 0.755 µg/mL).

Regarding `Cc1c(S(=O)(=O)Nc2ccc(NC(=O)CCCOc3ccc(NS(=O)(=O)c4cnn(-c5ccc(Cl)cc5)c4)c(C(=O)O)c3)cc2C(=O)O)sc2ccc(Cl)cc12` [Compound 7], the MIC was 0.0122 µM (≈ 0.0105 µg/mL).

With `CCCCc1ccc(S(=O)(=O)Nc2ccc(NC(=O)CCC(=O)Nc3ccc(NS(=O)(=O)c4ccc(CCCC)cc4)c(P(=O)(O)O)c3)cc2C(=O)O)cc1` [Compound 1, 2-((4-butylphenyl)sulfonamido)-5-(4-((4-((4-butylphenyl)sulfonamido)-3-phosphonophenyl)amino)-4-oxobutanamido)benzoic acid], the MIC came out at 1.56 µM (≈ 1.27 µg/mL). With `CCCCc1ccc(S(=O)(=O)Nc2ccc(NC(=O)CCNC(=O)c3ccc(NS(=O)(=O)c4ccc(CCCC)cc4)c(C(=O)O)c3)cc2C(=O)O)cc1` [Compound 20, 2-((4-butylphenyl)sulfonamido)-5-(3-(4-((4-butylphenyl)sulfonamido)-3-carboxy-benzamido)propanamido)benzoic acid], the MIC was 0.112 µM (≈ 0.0872 µg/mL).

Take `O=C(Nc1ccc(NC(=O)C(=O)NCc2ccc(Cl)cc2)c(C(=O)O)c1)Nc1ccc(NC(=O)C(=O)NCc2ccc(Cl)cc2)c(C(=O)O)c1` [Compound 17, 5,5′-(carbonylbis(azanediyl))bis(2-(2-((4-chlorobenzyl)amino)-2-oxoacetamido)benzoic acid)]: the MIC came to 0.0245 µM (≈ 0.0177 µg/mL). As to `O=C(CCNC(=O)c1ccc(NS(=O)(=O)c2cnn(-c3ccc(Cl)cc3)c2)c(C(O)O)c1)Nc1ccc(NS(=O)(=O)c2cnn(-c3ccc(Cl)cc3)c2)c(C(=O)O)c1` [Compound 23], the MIC came to 0.098 µM (≈ 0.0852 µg/mL). For the compound `O=C(Nc1ccc(NC(=O)C(=O)NCCc2ccc(Cl)cc2)c(C(=O)O)c1)Nc1ccc(NC(=O)C(=O)NCCc2ccc(Cl)cc2)c(C(=O)O)c1` [Compound 19], the MIC is greater than 3.13 µM. With `CCCCc1ccc(S(=O)(=O)Nc2ccc(NC(=O)CCC(=O)Nc3ccc(NS(=O)(=O)c4ccc(CCCC)cc4)c(C(=O)O)c3)cc2C(=O)O)cc1` [Compound 2, 5,5′-(succinylbis(azanediyl))bis(2-((4-butylphenyl)sulfonamido)benzoic acid)], the MIC amounted to 0.0568 µM (≈ 0.0442 µg/mL). As for `CCCCc1ccc(S(=O)(=O)Nc2ccc(NC(=O)CCCOc3ccc(NS(=O)(=O)c4sc(-c5ccccc5)nc4C)c(C(=O)O)c3)cc2C(=O)O)cc1` [Compound 8], the MIC was determined as 0.0173 µM (≈ 0.014 µg/mL).

For the compound `O=C(CCCOc1ccc(NS(=O)(=O)c2ccc(-c3ccc(Cl)cc3)s2)c(C(=O)O)c1)Nc1ccc(NS(=O)(=O)c2ccc(-c3ccc(Cl)cc3)s2)c(C(=O)O)c1` [Compound 4, 5-(4-(3-Carboxy-4-((5-(4-chlorophenyl)thiophene)-2-sulfonamido)phenoxy)-butanamido)-2-((5-(4-chlorophenyl)thiophene)-2-sulfonamido)benzoic acid], the MIC worked out at 0.0122 µM (≈ 0.0108 µg/mL). As to `CCCCc1ccc(S(=O)(=O)Nc2ccc(NC(=O)CCC(=O)Nc3cnc(NS(=O)(=O)c4ccc(CCCC)cc4)c(C(=O)O)c3)cc2C(=O)O)cc1` [Compound 3, 2-((4-butylphenyl)sulfonamido)-5-(4-((4-((4-butylphenyl)sulfonamido)-3-carboxyphenyl)amino)-4-oxobutanamido)nicotinic acid], the MIC stood at 0.621 µM (≈ 0.484 µg/mL). As for `O=C(CCCOc1ccc(NS(=O)(=O)c2cnn(-c3ccc(Cl)cc3)c2)c(C(=O)O)c1)Nc1ccc(NC(=O)Cc2cccc(-c3ccc(F)cc3)c2)c(C(=O)O)c1` [Compound 12], the MIC amounted to 0.0489 µM (≈ 0.0404 µg/mL). Regarding `O=C(CCCOc1ccc(NS(=O)(=O)c2cnn(-c3ccc(Cl)cc3)c2)c(C(=O)O)c1)Nc1ccc(NS(=O)(=O)c2ccc(-c3ccc(F)cc3)cc2)c(C(=O)O)c1` [Compound 6], the MIC was 0.0173 µM (≈ 0.0147 µg/mL). Take `CCCCc1ccc(S(=O)(=O)Nc2ccc(NC(=O)C[C@H](C)NC(=O)c3ccc(NS(=O)(=O)c4ccc(CCCC)cc4)c(C(O)O)c3)cc2C(=O)O)cc1` [Compound 22]: the MIC was 0.782 µM (≈ 0.622 µg/mL).

On to `CCCCc1ccc(S(=O)(=O)Nc2ccc(NC(=O)CCNC(=O)c3ccc(NS(=O)(=O)c4ccc(CCOC)cc4)c(C(O)O)c3)cc2C(=O)O)cc1` [Compound 21], for which the MIC worked out at 0.782 µM (≈ 0.612 µg/mL).
